Columns and labels:
Format in all cases: in vivo, human
FSH = assay: Phase I repeated dose study 101-50202: serum FSH
Excerpt: (§1) Fispemifene has been studied in two phase I studies in humans—in a single dose and a repeated dose study. Effect of fispemifene on hormone levels was one main focus of the repeated dose study. The phase I repeated dose study (number 101-50202) was a randomized, double-blind, placebo-controlled 28-day dose-escalation study performed in 31 healthy, elderly men, aged 50-68 years. The main objective of the study was to investigate the tolerability, safety and pharmacokinetics of fispemifene after repeated oral doses, but the study focused also on the effects of fispemifene on serum free and total testosterone, estradiol, and other relevant hormones. The fispemifene doses 10, 30, 100 and 300 mg per day and placebo were administered once every morning as capsules containing 10 mg or 100 mg of fispemifene, or placebo.
(§2) The variables for safety and tolerability were adverse events, vital signs, 12-lead ECG, clinical laboratory evaluations, physical examination, ultrasound examinations (mammary glands) and inhibin B. For pharmacokinetics, the concentrations of fispemifene and its metabolite(s) were to be evaluated. For pharmacodynamics, serum concentrations of FSH, LH, estradiol, testosterone, SHBG, prolactin, aldosterone, cortisol and TSH before and during treatment were measured and compared with the concentrations in the placebo-group.

LH = assay: Phase I repeated dose study 101-50202: serum LH
Excerpt: as §1, §2

SHBG = assay: Phase I repeated dose study 101-50202: serum SHBG;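 for Serum SHBG, Mean: SHBG concentrations in nmol/L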
Excerpt: as §1, §2

E2 (estradiol) = assay: Example 3 study in hypogonadal men: serum estradiol (ITT); conditions: for Estradiol, Max / Estradiol, Mean ± SD / Estradiol, Median / Estradiol, Min: Baseline (Visit 2);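 for Estradiol, Max: estradiol concentrations in pg/mL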;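 for Estradiol, Mean ± SD: estradiol concentrations in pg/mL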;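 for Estradiol, Median: estradiol concentrations in pg/mL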;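 for Estradiol, Min: estradiol concentrations in pg/mL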
Method: A randomized, double-blind, placebo controlled, parallel-group study of once-daily doses of fispemifene (100, 200, and 300 mg/day) given for 4 weeks was conducted in a population of hypogonadal men. Subjects were required to meet all of the following inclusion criteria at screening and prior to randomization to be eligible for the study:
There were 77 subjects total. The number of subjects randomized to the 100 mg fispemifene, 200 mg fispemifene, 300 mg fispemifene, and placebo arms were 21, 21, 19, and 16, respectively.
Subjects were randomly assigned to one of four treatment groups in a 1:1:1:1 ratio: • Treatment A (100 mg): fispemifene 100 mg+placebo+placebo; • Treatment B (200 mg): fispemifene 100 mg+fispemifene 100 mg+placebo; • Treatment C (300 mg): fispemifene 100 mg+fispemifene 100 mg+fispemifene 100 mg; and • Treatment D (Placebo): placebo+placebo+placebo.
Subjects took one dose (three capsules) of study medication once a day at home for 4 weeks. Capsules were to be taken in the morning immediately after breakfast, with the exception of the morning of the Week 4 visit. Capsules were not to be taken on the morning of the Week 4 visit because trough plasma levels of fispemifene were determined by a blood sample taken at this visit. Each subject was randomly assigned to treatment with one of the 3 different dose regimens of fispemifene or placebo vehicle. Each subject received a 4 week supply of study drug.
Blood samples were taken from the subjects within 1 week prior to dosing with study drug to establish baseline values; after 2 and 4 weeks of randomization; and 2 weeks after the last dose of study drug. Serum was prepared from those samples and used to determine the mean % change from baseline in total testosterone, free testosterone, SHBG (sex hormone-binding globulin), DHT (dihydrotestosterone), E2 (estradiol), LH (luteinizing hormone), FSH (follicle stimulating hormone), and inhibin B.
3. Percent change from baseline in SHBG, DHT, E2, LH, FSH, inhibin B, and testosterone/E2 ratio at Weeks 2, 4, and 6.

[1] = during the 28 days of treatment
[2] = 100 mg/day, to Week 6 (2 weeks after discontinuation)
[3] = 200 mg/day, to Week 6 (2 weeks after discontinuation)
[4] = 300 mg/day, to Week 6 (2 weeks after discontinuation)

OCCOCCOc1ccc(/C(=C(/CCCl)c2ccccc2)c2ccccc2)cc1 [Fispemifene, (Z)-2-{2-[4-(4-Chloro-1,2-diphenylbut-1-enyl)phenoxy]ethoxy}ethanol]
Serum FSH, Mean (FSH; 10 mg/day, Baseline): 5.42 U/L | Serum FSH, Mean (FSH; 10 mg/day, Day 8): 5.87 U/L | Serum FSH, Mean (FSH; 10 mg/day, Day 15): 5.20 U/L | Serum FSH, Mean (FSH; 10 mg/day, Day 22): 6.60 U/L | Serum FSH, Mean (FSH; 10 mg/day, Day 28): 5.66 U/L | Serum FSH, Mean (FSH; 30 mg/day, Baseline): 9.14 U/L | Serum FSH, Mean (FSH; 30 mg/day, Day 8): 9.78 U/L | Serum FSH, Mean (FSH; 30 mg/day, Day 15): 10.14 U/L | Serum FSH, Mean (FSH; 30 mg/day, Day 22): 10.18 U/L | Serum FSH, Mean (FSH; 30 mg/day, Day 28): 8.42 U/L | Serum FSH, Mean (FSH; 100 mg/day, Baseline): 6.30 U/L | Serum FSH, Mean (FSH; 100 mg/day, Day 8): 7.68 U/L | Serum FSH, Mean (FSH; 100 mg/day, Day 15): 8.10 U/L | Serum FSH, Mean (FSH; 100 mg/day, Day 22): 8.20 U/L | Serum FSH, Mean (FSH; 100 mg/day, Day 28): 7.73 U/L | Serum FSH, Mean (FSH; 300 mg/day, Baseline): 6.80 U/L | Serum FSH, Mean (FSH; 300 mg/day, Day 8): 8.80 U/L | Serum FSH, Mean (FSH; 300 mg/day, Day 15): 8.73 U/L | Serum FSH, Mean (FSH; 300 mg/day, Day 22): 8.85 U/L | Serum FSH, Mean (FSH; 300 mg/day, Day 28): 7.57 U/L | effect on serum concentration of FSH (FSH; [1]): increased | Serum LH, Mean (LH; 10 mg/day, Baseline): 3.47 U/L | Serum LH, Mean (LH; 10 mg/day, Day 8): 3.12 U/L | Serum LH, Mean (LH; 10 mg/day, Day 15): 2.87 U/L | Serum LH, Mean (LH; 10 mg/day, Day 22): 3.56 U/L | Serum LH, Mean (LH; 10 mg/day, Day 28): 3.02 U/L | Serum LH, Mean (LH; 30 mg/day, Baseline): 3.58 U/L | Serum LH, Mean (LH; 30 mg/day, Day 8): 4.26 U/L | Serum LH, Mean (LH; 30 mg/day, Day 15): 5.02 U/L | Serum LH, Mean (LH; 30 mg/day, Day 22): 4.32 U/L | Serum LH, Mean (LH; 30 mg/day, Day 28): 4.42 U/L | Serum LH, Mean (LH; 100 mg/day, Baseline): 4.12 U/L | Serum LH, Mean (LH; 100 mg/day, Day 8): 5.52 U/L | Serum LH, Mean (LH; 100 mg/day, Day 15): 6.82 U/L | Serum LH, Mean (LH; 100 mg/day, Day 22): 7.18 U/L | Serum LH, Mean (LH; 100 mg/day, Day 28): 7.60 U/L | Serum LH, Mean (LH; 300 mg/day, Baseline): 4.58 U/L | Serum LH, Mean (LH; 300 mg/day, Day 8): 6.80 U/L | Serum LH, Mean (LH; 300 mg/day, Day 15): 6.75 U/L | Serum LH, Mean (LH; 300 mg/day, Day 22): 7.77 U/L | Serum LH, Mean (LH; 300 mg/day, Day 28): 6.70 U/L | effect on serum concentration of LH (LH; [1]): increased | Serum SHBG, Mean (SHBG; 10 mg/day, Baseline): 47.7 nmol/L | Serum SHBG, Mean (SHBG; 10 mg/day, Day 8): 46.3 nmol/L | Serum SHBG, Mean (SHBG; 10 mg/day, Day 15): 48.2 nmol/L | Serum SHBG, Mean (SHBG; 10 mg/day, Day 22): 50.2 nmol/L | Serum SHBG, Mean (SHBG; 10 mg/day, Day 28): 45.2 nmol/L | Serum SHBG, Mean (SHBG; 30 mg/day, Baseline): 34.2 nmol/L | Serum SHBG, Mean (SHBG; 30 mg/day, Day 8): 34.2 nmol/L | Serum SHBG, Mean (SHBG; 30 mg/day, Day 15): 37.4 nmol/L | Serum SHBG, Mean (SHBG; 30 mg/day, Day 22): 37.2 nmol/L | Serum SHBG, Mean (SHBG; 30 mg/day, Day 28): 36.6 nmol/L | Serum SHBG, Mean (SHBG; 100 mg/day, Baseline): 41.7 nmol/L | Serum SHBG, Mean (SHBG; 100 mg/day, Day 8): 47.7 nmol/L | Serum SHBG, Mean (SHBG; 100 mg/day, Day 15): 52.0 nmol/L | Serum SHBG, Mean (SHBG; 100 mg/day, Day 22): 55.7 nmol/L | Serum SHBG, Mean (SHBG; 100 mg/day, Day 28): 50.8 nmol/L | Serum SHBG, Mean (SHBG; 300 mg/day, Baseline): 50.7 nmol/L | Serum SHBG, Mean (SHBG; 300 mg/day, Day 8): 64.2 nmol/L | Serum SHBG, Mean (SHBG; 300 mg/day, Day 15): 66.2 nmol/L | Serum SHBG, Mean (SHBG; 300 mg/day, Day 22): 65.2 nmol/L | Serum SHBG, Mean (SHBG; 300 mg/day, Day 28): 58.3 nmol/L | effect on serum concentration of SHBG (SHBG; [1]): increased | Estradiol, Max (E2 (estradiol); 100 mg/day): 34.0 pg/mL | Estradiol, Mean ± SD (E2 (estradiol); 100 mg/day): 18.2 ± 6.54 pg/mL | Estradiol, Median (E2 (estradiol); 100 mg/day): 18.0 pg/mL | Estradiol, Min (E2 (estradiol); 100 mg/day): 10.0 pg/mL | Estradiol, % Change from Baseline, Max (E2 (estradiol); 100 mg/day, to Week 2): 131% | Estradiol, % Change from Baseline, Median (E2 (estradiol); 100 mg/day, to Week 2): 32% | Estradiol, % Change from Baseline, Max (E2 (estradiol); 100 mg/day, to Week 4): 110% | Estradiol, % Change from Baseline, Median (E2 (estradiol); 100 mg/day, to Week 4): 31% | Estradiol, % Change from Baseline, Max (E2 (estradiol); [2]): 80% | Estradiol, % Change from Baseline, Median (E2 (estradiol); [2]): 13% | Estradiol, Max (E2 (estradiol); 200 mg/day): 33.0 pg/mL | Estradiol, Mean ± SD (E2 (estradiol); 200 mg/day): 19.2 ± 6.23 pg/mL | Estradiol, Median (E2 (estradiol); 200 mg/day): 17.0 pg/mL | Estradiol, Min (E2 (estradiol); 200 mg/day): 11.0 pg/mL | Estradiol, % Change from Baseline, Max (E2 (estradiol); 200 mg/day, to Week 2): 171% | Estradiol, % Change from Baseline, Median (E2 (estradiol); 200 mg/day, to Week 2): 23% | Estradiol, % Change from Baseline, Max (E2 (estradiol); 200 mg/day, to Week 4): 150% | Estradiol, % Change from Baseline, Median (E2 (estradiol); 200 mg/day, to Week 4): 43% | Estradiol, % Change from Baseline, Max (E2 (estradiol); [3]): 176% | Estradiol, % Change from Baseline, Median (E2 (estradiol); [3]): 23% | Estradiol, Max (E2 (estradiol); 300 mg/day): 42.0 pg/mL | Estradiol, Mean ± SD (E2 (estradiol); 300 mg/day): 20.8 ± 7.15 pg/mL | Estradiol, Median (E2 (estradiol); 300 mg/day): 22.0 pg/mL | Estradiol, Min (E2 (estradiol); 300 mg/day): 10.0 pg/mL | Estradiol, % Change from Baseline, Max (E2 (estradiol); 300 mg/day, to Week 2): 108% | Estradiol, % Change from Baseline, Median (E2 (estradiol); 300 mg/day, to Week 2): 33% | Estradiol, % Change from Baseline, Max (E2 (estradiol); 300 mg/day, to Week 4): 100% | Estradiol, % Change from Baseline, Median (E2 (estradiol); 300 mg/day, to Week 4): 29% | Estradiol, % Change from Baseline, Max (E2 (estradiol); [4]): 77% | Estradiol, % Change from Baseline, Median (E2 (estradiol); [4]): 0% | effect on serum estradiol levels (E2 (estradiol); hypogonadal men, 100-300 mg/day for 4 weeks): increased
